Measured values published in patent US20040038888A1 (priority 2002, published 2004).

Legend:
[1] = system: mouse adult neural stem cells; assay: Intracellular ATP assay, adult mouse NSC, non-adherent culture; type: cell-based
Experimental: The anterior lateral wall of the lateral ventricle of 5-6 week old mice was enzymatically dissociated in 0.8 mg/ml hyaluronidase and 0.5 mg/ml trypsin in DMEM containing 4.5 mg/ml glucose and 80 units/ml DNase at 37° C. for 20 min. The cells were gently triturated and mixed with three volumes of Neurosphere medium (DMEM/F12, B27 supplement, 12.5 mM HEPES pH7.4) containing 20 ng/ml EGF (unless otherwise stated), 100 units/ml penicillin and 100μg/ml streptomycin. After passing through a 70 μm strainer, the cells were pelleted at 160×g for 5 min. The supernatant was subsequently removed and the cells resuspended in Neurosphere medium supplemented as above, plated out in culture dishes and incubated at 37° C. Neurospheres were ready to be split approximately 7 days after plating.
To split neurosphere cultures, neurospheres were collected by centrifugation at 160×g for 5 min. The neurospheres were resuspended in 0.5 ml Trypsin/EDTA in HBSS (1×), incubated at 37° C. for 2 min and triturated gently to aid dissociation. Following a further 3 min incubation at 37° C. and trituration, 3 volumes of ice cold NSPH-media-EGF were added to stop further trypsin activity. The cells were pelleted at 220×g for 4 min, resuspended in fresh Neurosphere medium supplemented with 20 ng/ml EGF and 1 nM bFGF plated out and incubated at 37° C.
Mouse neurospheres, cultured as described above, from passage 2, were seeded in DMEM/F12 supplemented with B27 into a 96-well plate as single cells (10000 cells/well) to the substances to be measured were added at the concentrations indicated. After 3 days incubation, intracellular ATP was measured using the ATP-SL kit from BioThema, Sweden, according to the manufacturer's instructions. PACAP and VIP were purchased from Bachem. Maxadilan was a kind gift from Richard G Titus, Dept Microbiology, Immunology and Pathology, College of Veterinary Medicine and Biological Sciences, Colorado State University.
In experiments where signalling pathways were examined, cells were seeded as single cells as mentioned above. PACAP, 100 nM, was co incubated with 10 uM PKA inhibitor H89 (Alexis-Biochemicals) or 1 uM PLC inhibitor U73122 (Alexis-Biochemicals) or 1 uM of the PKC inhibitor Gö6976 (Sigma-Aldrich). Cells were incubated for 4 days before measurements of ATP.
In the experiment analysing the combinatory effect of PACAP and EGF, PACAP at 100 nM was co-incubated with 3 nM EGF for 3 days.

CREB phosphorylation = assay: Western blot of phosphorylated CREB, adult mouse NSC, non-adherent; type: cell-based; settings: 10 nM PACAP
Experimental: Adult mouse NSC and aHNSC were prepared and cultured as stated in Example 2 (Method A) and Example 1 (Method A). Cultures were exposed to either 10 nM PACAP or EGF (1 nM) and FGF (1 nM) for the times indicated. After treatment, the cells were lysed in lysis buffer, as shown in Patrone et al. (Patrone, Andersson et al. 1999). DNA content was detemined by the use of a Pico Green-kit for ds DNA quantitation of cell extracts. Total protein measurements were performed with Nano Orange-kit. Equal amounts of protein were run on a gradient gel 4-12% Bis-Tris gel (NuPage/Mops buffer) and transferred to a nitrocellulose membrane. Western blot was performed and phosphorylated CREB was labelled using a rabbit anti phospho-CREB (1:1000, Upstate biotechnology), a secondary anti rabbit HRP antibodies (1:10.000). Phosphorylated CREB protein bands (43 kD) were detected using the ECL-kit (Amersham).

hippocampal neurogenesis = assay: PACAP/BrdU infusion, BrdU/NeuN co-labelling of the dentate gyrus; type: in vivo, mouse; settings: 600 nM pump concentration, 0.5 μl/hr, 7 days infusion plus 10 days survival, relative to vehicle
Experimental: 10 week old male mice (C57B1/2), maintained on a 12 hr light/dark cycle with food and water ad libidum, were infused in the right lateral ventricle with PACAP38 (Bachem), using a Alzet pump (1007D), for 3,5 days or 7 days at a daily dose of 31 ng/day (600 nM PACAP pump concentration infused at a rate of 0.5 μl/hr). Bromodeoxyuridine (BrdU) (50 mg/ml) was also included in the infusion vehicle (0.9% saline containing 1 mg/ml mouse serum albumin (Sigma)) to enable measurement of proliferation by quantitation of BrdU incorporation in the DNA. The group of infused with either PACAP/BrdU or vehicle/BrdU for 3,5 days and sacrificed at this time point. The group infused with either PACAP/BrdU or vehicle/BrdU for 7 days were allowed to survive a further 10 days. After the allotted time the mice were sacrificed, perfused with PBS the brains removed and frozen at −70° C. prior to sectioning for immumohistochemical analysis.
The procedure for doubling labeling of BrdU with NeuN was performed sequentially. […]
For all BrdU/NeuN co-labelling experiments, one to two sections per animal were analysed. […] The number of BrdU/NeuN-labelled cells per area of dentate granule cell layer was counted manually. […] Results of the dentate gyrus BrdU/NeuN counts are expressed as the average number of BrdU/NeuN-positive cells per dentate gyrus for each individual animal and reported as the mean ±SEM.

How did the “intracellular ATP levels” value ([1]; PACAP 100 nM, 4 days, relative to control) turn out when “pituitary adenylate cyclase-activating polypeptide [PACAP]” was run?
The value was “significantly increases intracellular ATP levels”.

And the “intracellular ATP levels, and hence NSC number” value ([1]; PACAP 100 nM, EGF 3 nM, alone or combined, 3 days)?
The value was “increased intracellular ATP levels”.

And the “intracellular ATP levels, and hence cell number” value ([1]; varying concentrations, non-adherent conditions, 3 days, relative to control, dose-dependent)?
Its value is “statistically significant increase in intracellular ATP levels”.

And the CREB phosphorylation (CREB phosphorylation; 15 min exposure)?
The CREB phosphorylation was “upregulated”.

What about the CREB phosphorylation (CREB phosphorylation; 240 min) of the same substance?
Its CREB phosphorylation is “return to basal levels”.

What about the “neurogenesis in the ipsilateral dentate gyrus (BrdU/NeuN positive cells/dentate gyrus)” value (hippocampal neurogenesis) of the same substance?
The value was “increase in neurogenesis”.
